Columns and labels:
[1] = test system: Cat flea Ctenocephalides felis; experiment: Example B1: activity against fleas on dogs in a contaminated environment, oral tablets; type: in vivo
Text: Comparison Between the Activity of Lufenuron Alone and the Combination of Nitenpyran and Lufenuron Against Dog Fleas in a Contaminated Environment Corresponding to Actual Conditions.
In the study, conditions existing in the household were simulated. To this end, 4 isolated and clinically clean rooms were used. They contained a sleeping area laid out with straw and a small run to the outside. The rooms were subjected to natural light conditions. […] Subsequently, each group of dogs underwent different treatment.
Control group 1 was given no active ingredient, but only a placebo and served as the reference group. Group 2 was given lufenuron in a monthly dosage in accordance with the instructions on the packet and once a week was given a placebo. Group 3 was given lufenuron in a monthly dosage in accordance with the instructions on the packet, and once a week was additionally given nitenpyram for a period of 6 weeks. Group 4 was given lufenuron in a monthly dosage in accordance with the instructions on the packet, and twice a week was additionally given nitenpyram for a period of 6 weeks.
In all four groups, the flea population was determined by counting them twice weekly before the first treatment and once weekly during treatment.
The activity of the test substances was determined under simulated household conditions in accordance with the following formula: [formula]

[2] = test system: fleas present on the cats; details: cited from earlier work
[3] = test system: fleas; details: in vitro test, cited from earlier work

O=C(NC(=O)c1c(F)cccc1F)Nc1cc(Cl)c(OC(F)(F)C(F)C(F)(F)F)cc1Cl (racemic) [lufenuron, (R,S)-1-[2,5-dichloro-4-(1,1,2,2,3,3,3-hexafluoropropoxy)-phenyl]-3-(2,6-difluorobenzoyl)urea]
Activity (% relative to control) ([1]; days 0-28 after first treatment, monthly lufenuron only (Group 2)): 25.4% | Activity (% relative to control) ([1]; days 29-56, monthly lufenuron only (Group 2)): 78.6% | Activity (% relative to control) ([1]; days 57-84, monthly lufenuron only (Group 2)): 72.1% | Activity (% relative to control) ([1]; days 85-112, monthly lufenuron only (Group 2)): 94.3% | time until activity achieved a satisfactory level for practical usage ([1]; group 2, treated solely with lufenuron): ca. 84 days

CCN(Cc1ccc(Cl)nc1)/C(=C/[N+](=O)[O-])NC [nitenpyram, (E)-N-(6-chloro-pyridin-3-ylmethyl)-N-ethyl-N′-methyl-2-nitrovinylidenediamine]
activity against the fleas present on the cats ([2]; 6 hours after oral administration to cats): 60% | activity against fleas ([2]; cats, oral, on the second day after renewed infestation): 55% | time within which all the fleas except one died ([1]; after the first administration of nitenpyram): 16 to 24 days | activity ([3]; after 24 hours): 100% | time to first, substantial activity ([3]; after feeding contaminated blood to fleas): 30 min

Source: US20020058683A1, “Oral combination of lufenuron and nitenpyram against fleas” (priority 1998, published 2002)
